# Tests used:
# Escherichia coli [1] = experiment: Activity of Escherichia coli UDP-galactopyranose mutase by HPLC
# Escherichia coli [2] = experiment: Ratio of Kcat to Km of Escherichia coli UDP-galactopyranose mutase; design: unit not given here
# Escherichia coli [3] = experiment: Inhibition of Escherichia coli UDP-galactopyranose mutase assessed as inhibition of conversion to UDP-galactopyranose; details: concentration not given here
# [4] = Binding affinity to Escherichia coli UDP-galactopyranose mutase
SMILES,Km (Escherichia coli [1]),kcat (Escherichia coli [1]),kcat/Km (Escherichia coli [2]),inhibition (Escherichia coli [3]),Kd [4]
O=c1ccn([C@@H]2O[C@H](COP(=O)(O)OP(=O)(O)O[C@H]3O[C@@H]([C@@H](O)CO)[C@H](O)[C@H]3F)[C@@H](O)[C@H]2O)c(=O)[nH]1,65 µM,0.033 s⁻¹,0.00041,–,–
O=c1ccn([C@@H]2O[C@H](COP(=O)(O)OP(=O)(O)O[C@H]3O[C@@H](CO)[C@H](O)[C@H]3O)[C@@H](O)[C@H]2O)c(=O)[nH]1,600 µM,12 s⁻¹,0.02,–,–
O=c1ccn([C@@H]2O[C@H](COP(=O)(O)OP(=O)(O)O)[C@@H](O)[C@H]2O)c(=O)[nH]1 [URIDINE_DIPHOSPHATE],–,–,–,22%,14 µM

# The next lines start with results.
Km (Escherichia coli [1]),kcat (Escherichia coli [1]),kcat/Km (Escherichia coli [2]),inhibition (Escherichia coli [3]),SMILES,Kd [4]
24000 µM,7.4 s⁻¹,0.00034,20%,O=c1ccn([C@@H]2O[C@H](COP(=O)(O)OP(=O)(O)O[C@H]3O[C@@H]([C@@H](O)CF)[C@H](O)[C@H]3O)[C@@H](O)[C@H]2O)c(=O)[nH]1,–
861 µM,5.7 s⁻¹,0.0054,–,O=c1ccn([C@@H]2O[C@H](COP(=O)(O)OP(=O)(O)O[C@H]3O[C@@H]([C@@H](O)CO)[C@H](F)[C@H]3O)[C@@H](O)[C@H]2O)c(=O)[nH]1,–
22 µM,27 s⁻¹,1.23,–,O=c1ccn([C@@H]2O[C@H](COP(=O)(O)OP(=O)(O)O[C@H]3O[C@@H]([C@@H](O)CO)[C@H](O)[C@H]3O)[C@@H](O)[C@H]2O)c(=O)[nH]1,–

# From ChEMBL document CHEMBL1143322, “Probing UDP-galactopyranose mutase binding pocket: a dramatic effect on substitution of the 6-position of UDP-galactofuranose” (Bioorg Med Chem Lett, 2009)
